We go through 3 compounds from patent US10730865B2, “Compounds for modulating aquaporins” (APOGLYX AB, priority 2016, dated 2020).

Chain of human aquaporin 9 (O43315 whole entry): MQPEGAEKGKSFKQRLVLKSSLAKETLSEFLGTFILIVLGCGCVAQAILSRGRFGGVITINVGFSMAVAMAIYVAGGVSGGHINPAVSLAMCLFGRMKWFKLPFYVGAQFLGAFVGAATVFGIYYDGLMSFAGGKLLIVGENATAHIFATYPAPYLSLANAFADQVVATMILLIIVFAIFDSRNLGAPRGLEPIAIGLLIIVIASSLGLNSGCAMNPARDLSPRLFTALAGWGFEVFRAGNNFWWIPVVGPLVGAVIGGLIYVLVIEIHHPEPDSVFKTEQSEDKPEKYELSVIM

For the experiment, the target named is human aquaporin 9 (Homo sapiens (Human), UniProt O43315). Put plainly: Calcein quenching fluostar assay (inhibition of human aquaporin 9). In kind it is cell-based. The note with it: Human AQP9 cell line; example compounds used as 1 mM stock solutions in DMSO. The method, then:
Calcein Quenching Fluostar Assay
A calcein quenching fluostar assay was performed in order to investigate the biological activity of the newly synthesized examples 1 to 57. This type of assay is disclosed in J. Biol. Chem., 2011, 286, 44319-44325 and Am. J. Physiol. Renal Physiol. (2010), 298, F224-230.
1) Two days prior to commencement of the assay, seed 10,000 cells/well of 96 well black clear bottom plate (Greiner Poly-lysin plate). A 1:1 mix of Dulbecco's Modified Eagle's Medium: Nutrient Mixture F-12 (DMEM: F12) was obtained from Gibco. Tetracycline stock of 5 mg/ml in 96% ethanol is used. Medium: DMEM/F12/10% Donor Bovine Serum, Human AQP9 cell line+1:270,000 tetracyclin, mouse AQP9 cell line+1:2,700,000 tetracycline.
2) Day of assay: Flick/slam off the medium and add 50 μl/well of loading solution: 5 ml DMEM/F12/10% Donor Bovine Serum, 25 μl Calcein AM—from freshly dissolved aliquot in 50 μl DMSO (VWR #734-1434), and 100 μl Probenecid.
3) Incubate the well for 90 minutes at 37° C.
4) Perform one wash with 75 μl wash buffer.
5) Add 75 μl of an example compound prepared in wash buffer per well.
Example compounds are prepared in 500 μl U bottom PP plates (NUNC). 2.7 μl Substance in DMSO are added to row A; 180 μl of wash buffer+1% DMSO are added to rows B—H. 90 μl from row A are transferred and mixed with all other wells (up to row G) to make a 3-fold dilution series.
6) Assay in FLUOstar Optima at 25° C. Settings buffer addition at 135 μl/seconds, add 75 μl/well, record time course for 30 seconds, add sucrose buffer 3.6 seconds into recording.
7) Normalization to initial in Excel.
8) Fit to “exponential decay” function in GraphPad Prism 5.0, then arrange half live shrinking values according to wells and fit dose-response curves.
In general, EC50 refers to the concentration at which the effect is half-maximal. In the case of `CCc1nnc(SCC(=O)Nc2nnc(-c3ccc(OC)cc3)s2)n1CCCOC` [Example 47, 2-{[5-ethyl-4-(3-methoxypropyl)-4H-1,2,4-triazol-3-yl]sulfanyl}-N-[5-(4-methoxyphenyl)-1,3,4-thiadiazol-2-yl]acetamide], the EC50 is 159 nM.

As for `CCn1c(CN2CCOCC2)nnc1SCC(=O)Nc1nnc(-c2ccc(OC)cc2)s1` [Example 48, 2-{[4-ethyl-5-(morpholin-4-ylmethyl)-4H-1,2,4-triazol-3-yl]sulfanyl}-N-[5-(4-methoxyphenyl)-1,3,4-thiadiazol-2-yl]acetamide], the EC50 was 230 nM. As to `CCc1nnc(SCC(=O)Nc2nnc(-c3ccccn3)s2)n1CC` [Example 49, 2-[(4,5-diethyl-4H-1,2,4-triazol-3-yl)sulfanyl]-N-[5-(pyridin-2-yl)-1,3,4-thiadiazol-2-yl]acetamide], the EC50 was 224 nM.
